In one data set the target is T1, telomerase (Homo sapiens, UniProt O14746).
T1 construct: assayed for telomerase activity using MGC-803 cells extract; endogenous in cells; host or cells: MGC-803 cell extract
In words: Telomerase activity assay using MGC-803 cells extract. It counts as biochemical. Conditions: mean ± SD.

T1 sequence (O14746 whole entry): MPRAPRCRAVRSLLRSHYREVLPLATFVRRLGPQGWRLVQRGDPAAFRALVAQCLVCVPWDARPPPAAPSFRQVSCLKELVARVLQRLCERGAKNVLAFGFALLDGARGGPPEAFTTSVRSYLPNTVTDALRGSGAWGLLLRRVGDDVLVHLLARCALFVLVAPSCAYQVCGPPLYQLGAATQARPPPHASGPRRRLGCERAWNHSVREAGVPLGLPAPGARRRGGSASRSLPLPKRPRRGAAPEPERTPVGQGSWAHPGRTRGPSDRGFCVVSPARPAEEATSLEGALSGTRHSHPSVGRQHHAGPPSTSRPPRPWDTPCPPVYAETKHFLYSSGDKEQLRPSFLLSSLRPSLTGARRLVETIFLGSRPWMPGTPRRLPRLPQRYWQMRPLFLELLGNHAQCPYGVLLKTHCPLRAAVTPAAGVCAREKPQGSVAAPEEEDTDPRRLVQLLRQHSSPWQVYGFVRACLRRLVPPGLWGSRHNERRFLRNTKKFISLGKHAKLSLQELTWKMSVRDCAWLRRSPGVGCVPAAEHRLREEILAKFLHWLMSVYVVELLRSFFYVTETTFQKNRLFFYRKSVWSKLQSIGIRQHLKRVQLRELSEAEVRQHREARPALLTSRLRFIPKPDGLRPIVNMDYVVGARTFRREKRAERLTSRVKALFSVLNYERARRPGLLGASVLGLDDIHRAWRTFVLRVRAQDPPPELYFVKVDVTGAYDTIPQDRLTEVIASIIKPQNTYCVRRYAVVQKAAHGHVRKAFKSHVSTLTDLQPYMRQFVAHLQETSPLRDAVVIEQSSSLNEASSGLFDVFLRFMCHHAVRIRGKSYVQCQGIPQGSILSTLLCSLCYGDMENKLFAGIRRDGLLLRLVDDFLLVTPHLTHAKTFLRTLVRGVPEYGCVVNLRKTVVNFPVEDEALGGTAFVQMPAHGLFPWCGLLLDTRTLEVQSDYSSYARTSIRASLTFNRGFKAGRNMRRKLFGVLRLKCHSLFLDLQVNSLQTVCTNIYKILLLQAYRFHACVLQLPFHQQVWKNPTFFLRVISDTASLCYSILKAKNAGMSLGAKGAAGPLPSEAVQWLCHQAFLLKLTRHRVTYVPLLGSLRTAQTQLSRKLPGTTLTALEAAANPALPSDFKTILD
T1 sequence (O60832 2-514 partner limits assumed): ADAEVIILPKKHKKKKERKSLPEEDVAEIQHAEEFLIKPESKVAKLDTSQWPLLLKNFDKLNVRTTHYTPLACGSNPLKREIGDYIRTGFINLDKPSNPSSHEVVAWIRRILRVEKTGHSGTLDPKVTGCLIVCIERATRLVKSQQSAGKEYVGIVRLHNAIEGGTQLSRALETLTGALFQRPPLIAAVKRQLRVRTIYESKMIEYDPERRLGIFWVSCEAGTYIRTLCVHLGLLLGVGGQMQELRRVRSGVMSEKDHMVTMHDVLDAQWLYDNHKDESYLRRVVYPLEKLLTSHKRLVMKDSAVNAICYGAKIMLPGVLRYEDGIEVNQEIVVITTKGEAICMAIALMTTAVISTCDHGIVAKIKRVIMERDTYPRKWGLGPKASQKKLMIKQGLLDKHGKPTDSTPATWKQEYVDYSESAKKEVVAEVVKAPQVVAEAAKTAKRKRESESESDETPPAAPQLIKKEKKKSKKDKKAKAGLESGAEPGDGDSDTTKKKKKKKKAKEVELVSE
T1 sequence (Q9NPE3 whole entry partner): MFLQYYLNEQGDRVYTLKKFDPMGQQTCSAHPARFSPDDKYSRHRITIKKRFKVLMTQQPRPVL
T1 sequence (Q9NX24 whole entry partner): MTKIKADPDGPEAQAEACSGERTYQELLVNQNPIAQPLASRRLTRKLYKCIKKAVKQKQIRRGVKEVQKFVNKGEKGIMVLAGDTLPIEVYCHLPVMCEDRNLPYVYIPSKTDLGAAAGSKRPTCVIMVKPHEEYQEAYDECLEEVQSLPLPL
T1 sequence (Q9NY12 whole entry partner): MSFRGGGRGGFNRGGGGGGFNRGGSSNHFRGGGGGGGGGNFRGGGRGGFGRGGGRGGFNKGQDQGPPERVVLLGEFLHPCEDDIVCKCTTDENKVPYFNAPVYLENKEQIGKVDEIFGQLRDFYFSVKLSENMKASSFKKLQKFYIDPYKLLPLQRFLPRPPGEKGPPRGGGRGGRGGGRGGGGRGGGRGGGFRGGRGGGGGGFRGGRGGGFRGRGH

Take `COc1cc(OC)c2c(=O)c(OCC(=O)Nc3nnc(-c4cccc(OCc5ccccc5)c4)o3)c(-c3cc(OC)c(OC)c(OC)c3)oc2c1` [A30, N-(5–(3-(benzyloxy)phenyl)-1,3,4-oxadiazol-2-yl)-2–(5,7-dimethoxy-4-oxo-2–(3,4,5-trimethoxyphenyl)-4H-chromen-3-yloxy)acetamide]: the melting point lay in the range of 188 to 190 °C. The compound further registered an IC50 against telomerase greater than 60 µM.

`COc1cc(OC)c2c(=O)c(OCC(=O)Nc3nnc(-c4ccco4)o3)c(-c3cc(OC)c(OC)c(OC)c3)oc2c1` [A31, 2–(5,7-dimethoxy-4-oxo-2–(3,4,5-trimethoxyphenyl)-4H-chromen-3-yloxy)-N-(5-(furan-2-yl)-1,3,4-oxadiazol-2-yl)acetamide] came in with a melting point of 240 to 242 °C. For the same compound, at telomerase, the IC50 amounted to 2.75 ± 0.19 µM.

`COc1cc(OC)c2c(=O)c(OCC(=O)Nc3nnc(-c4cccs4)o3)c(-c3cc(OC)c(OC)c(OC)c3)oc2c1` [A32, 2–(5,7-dimethoxy-4-oxo-2–(3,4,5-trimethoxyphenyl)-4H-chromen-3-yloxy)-N-(5-(thiophen-2-yl)-1,3,4-oxadiazol-2-yl)acetamide] had a melting point of 224 to 226 °C. Besides, half-maximal inhibition on telomerase (IC50) was put at 2.22 ± 0.51 µM.

`COc1cc(OC)c2c(=O)c(OCC(=O)Nc3nnc(-c4ccccc4)o3)c(-c3ccc(OC)c(OC)c3)oc2c1` [B1, 2–(2-(3,4-dimethoxyphenyl)-5,7-dimethoxy-4-oxo-4H-chromen-3-yloxy)-N-(5-phenyl-1,3,4-oxadiazol-2-yl)acetamide] gave a melting point of 237 to 239 °C. Further, at telomerase, the IC50 was greater than 60 µM.

In turn, `COc1cc(OC)c2c(=O)c(OCC(=O)Nc3nnc(-c4ccc(F)cc4)o3)c(-c3ccc(OC)c(OC)c3)oc2c1` [B2, 2–(2-(3,4-dimethoxyphenyl)-5,7-dimethoxy-4-oxo-4H-chromen-3-yloxy)-N-(5–(4-fluorophenyl)-1,3,4-oxadiazol-2-yl)acetamide] registered a melting point of 236 to 238 °C. The compound further yielded an IC50 at telomerase of 1.38 ± 0.25 µM.

In the case of `COc1cc(OC)c2c(=O)c(OCC(=O)Nc3nnc(-c4cccc(F)c4)o3)c(-c3ccc(OC)c(OC)c3)oc2c1` [B3, 2–(2-(3,4-dimethoxyphenyl)-5,7-dimethoxy-4-oxo-4H-chromen-3-yloxy)-N-(5–(3-fluorophenyl)-1,3,4-oxadiazol-2-yl)acetamide], the melting point lay in the range of 229 to 231 °C. 4.3 ± 0.77 µM corresponded to half-maximal inhibition against telomerase (IC50).

Turning to `COc1cc(OC)c2c(=O)c(OCC(=O)Nc3nnc(-c4ccccc4F)o3)c(-c3ccc(OC)c(OC)c3)oc2c1` [B4, 2–(2-(3,4-dimethoxyphenyl)-5,7-dimethoxy-4-oxo-4H-chromen-3-yloxy)-N-(5–(2-fluorophenyl)-1,3,4-oxadiazol-2-yl)acetamide], the melting point lay within 235 to 237 °C. Moreover, at telomerase, the IC50 is 15.3 ± 2.71 µM.

`COc1cc(OC)c2c(=O)c(OCC(=O)Nc3nnc(-c4ccc(Cl)cc4)o3)c(-c3ccc(OC)c(OC)c3)oc2c1` [B5, N-(5–(4-chlorophenyl)-1,3,4-oxadiazol-2-yl)-2–(2-(3,4-dimethoxyphenyl)-5,7-dimethoxy-4-oxo-4H-chromen-3-yloxy)acetamide] showed a melting point of 213 to 215 °C. On telomerase, this compound yielded an IC50 of 4.22 ± 0.62 µM.

Take `COc1cc(OC)c2c(=O)c(OCC(=O)Nc3nnc(-c4cccc(Cl)c4)o3)c(-c3ccc(OC)c(OC)c3)oc2c1` [B6, N-(5–(3-chlorophenyl)-1,3,4-oxadiazol-2-yl)-2–(2-(3,4-dimethoxyphenyl)-5,7-dimethoxy-4-oxo-4H-chromen-3-yloxy)acetamide]: the melting point was 220 to 222 °C. Besides, on telomerase, the midpoint of inhibition, the IC50, lay at 15.4 ± 4.2 µM.

As to `COc1cc(OC)c2c(=O)c(OCC(=O)Nc3nnc(-c4ccccc4Cl)o3)c(-c3ccc(OC)c(OC)c3)oc2c1` [B7, N-(5–(2-chlorophenyl)-1,3,4-oxadiazol-2-yl)-2–(2-(3,4-dimethoxyphenyl)-5,7-dimethoxy-4-oxo-4H-chromen-3-yloxy)acetamide], the melting point was 221 to 223 °C. The compound also registered an IC50 at telomerase of 24.3 ± 2.7 µM.

For the compound `COc1cc(OC)c2c(=O)c(OCC(=O)Nc3nnc(-c4ccc(Br)cc4)o3)c(-c3ccc(OC)c(OC)c3)oc2c1` [B8, N-(5–(4-bromophenyl)-1,3,4-oxadiazol-2-yl)-2–(2-(3,4-dimethoxyphenyl)-5,7-dimethoxy-4-oxo-4H-chromen-3-yloxy)acetamide], the melting point is 212 to 214 °C. The IC50 on telomerase was 4.29 ± 0.83 µM.

`COc1cc(OC)c2c(=O)c(OCC(=O)Nc3nnc(-c4cccc(Br)c4)o3)c(-c3ccc(OC)c(OC)c3)oc2c1` [B9, N-(5–(3-bromophenyl)-1,3,4-oxadiazol-2-yl)-2–(2-(3,4-dimethoxyphenyl)-5,7-dimethoxy-4-oxo-4H-chromen-3-yloxy)acetamide] gave a melting point of 204 to 206 °C. Also, the concentration for half-maximal inhibition (IC50) on telomerase is 2.9 ± 0.45 µM.

`COc1cc(OC)c2c(=O)c(OCC(=O)Nc3nnc(-c4ccccc4Br)o3)c(-c3ccc(OC)c(OC)c3)oc2c1` [B10, N-(5–(2-bromophenyl)-1,3,4-oxadiazol-2-yl)-2–(2-(3,4-dimethoxyphenyl)-5,7-dimethoxy-4-oxo-4H-chromen-3-yloxy)acetamide] yielded a melting point of 226 to 228 °C. The IC50 against telomerase is greater than 60 µM.

On to `COc1cc(OC)c2c(=O)c(OCC(=O)Nc3nnc(-c4ccc(C)cc4)o3)c(-c3ccc(OC)c(OC)c3)oc2c1` [B11, 2–(2-(3,4-dimethoxyphenyl)-5,7-dimethoxy-4-oxo-4H-chromen-3-yloxy)-N-(5-p-tolyl-1,3,4-oxadiazol-2-yl)acetamide], for which the melting point is 239 to 241 °C. In addition, half-maximal inhibition at telomerase (IC50) was put at 5.65 ± 1.77 µM.

`COc1cc(OC)c2c(=O)c(OCC(=O)Nc3nnc(-c4cccc(C)c4)o3)c(-c3ccc(OC)c(OC)c3)oc2c1` [B12, 2–(2-(3,4-dimethoxyphenyl)-5,7-dimethoxy-4-oxo-4H-chromen-3-yloxy)-N-(5-m-tolyl-1,3,4-oxadiazol-2-yl)acetamide]: the melting point lay in the range of 221 to 223 °C. Also, on telomerase, the IC50 was greater than 60 µM.

In turn, `COc1cc(OC)c2c(=O)c(OCC(=O)Nc3nnc(-c4ccccc4C)o3)c(-c3ccc(OC)c(OC)c3)oc2c1` [B13, 2–(2-(3,4-dimethoxyphenyl)-5,7-dimethoxy-4-oxo-4H-chromen-3-yloxy)-N-(5-o-tolyl-1,3,4-oxadiazol-2-yl)acetamide] yielded a melting point of 234 to 236 °C. The compound also gave an IC50 against telomerase of 8.09 ± 2.25 µM.

In turn, `COc1cc(OC)c2c(=O)c(OCC(=O)Nc3nnc(-c4cccc([N+](=O)[O-])c4)o3)c(-c3ccc(OC)c(OC)c3)oc2c1` [B14, 2–(2-(3,4-dimethoxyphenyl)-5,7-dimethoxy-4-oxo-4H-chromen-3-yloxy)-N-(5–(3-nitrophenyl)-1,3,4-oxadiazol-2-yl)acetamide] came in with a melting point of 235 to 237 °C. The compound further yielded an IC50 on telomerase of 8.29 ± 1.33 µM.

`COc1cc(OC)c2c(=O)c(OCC(=O)Nc3nnc(-c4ccccc4[N+](=O)[O-])o3)c(-c3ccc(OC)c(OC)c3)oc2c1` [B15, 2–(2-(3,4-dimethoxyphenyl)-5,7-dimethoxy-4-oxo-4H-chromen-3-yloxy)-N-(5–(2-nitrophenyl)-1,3,4-oxadiazol-2-yl)acetamide]: the melting point lay within 254 to 256 °C. For the same compound, on telomerase, the half-maximal inhibitory concentration (IC50) came out at 17.2 ± 2.98 µM.

`COc1cc(OC)c2c(=O)c(OCC(=O)Nc3nnc(-c4ccc(C(F)(F)F)cc4)o3)c(-c3ccc(OC)c(OC)c3)oc2c1` [B16, 2–(2-(3,4-dimethoxyphenyl)-5,7-dimethoxy-4-oxo-4H-chromen-3-yloxy)-N-(5–(4-(trifluoromethyl)phenyl)-1,3,4-oxadiazol-2-yl)acetamide] came in with a melting point of 210 to 212 °C. This compound also displayed a 50% inhibitory concentration (IC50) against telomerase of 1.29 ± 0.2 µM.

Regarding `COc1cc(OC)c2c(=O)c(OCC(=O)Nc3nnc(-c4cccc(C(F)(F)F)c4)o3)c(-c3ccc(OC)c(OC)c3)oc2c1` [B17, 2–(2-(3,4-dimethoxyphenyl)-5,7-dimethoxy-4-oxo-4H-chromen-3-yloxy)-N-(5–(3-(trifluoromethyl)phenyl)-1,3,4-oxadiazol-2-yl)acetamide], the melting point fell in the range of 195 to 197 °C. Also, at telomerase, the IC50 amounted to 27.6 ± 3.11 µM.

Compound `COc1cc(OC)c2c(=O)c(OCC(=O)Nc3nnc(-c4ccccc4C(F)(F)F)o3)c(-c3ccc(OC)c(OC)c3)oc2c1` [B18, 2–(2-(3,4-dimethoxyphenyl)-5,7-dimethoxy-4-oxo-4H-chromen-3-yloxy)-N-(5–(2-(trifluoromethyl)phenyl)-1,3,4-oxadiazol-2-yl)acetamide] registered a melting point of 225 to 227 °C. On telomerase, this compound registered an IC50 of 2.79 ± 0.55 µM.

Turning to `COc1cc(OC)c2c(=O)c(OCC(=O)Nc3nnc(-c4ccc(OC(F)(F)F)cc4)o3)c(-c3ccc(OC)c(OC)c3)oc2c1` [B19, 2–(2-(3,4-dimethoxyphenyl)-5,7-dimethoxy-4-oxo-4H-chromen-3-yloxy)-N-(5–(4-(trifluoromethoxy)phenyl)-1,3,4-oxadiazol-2-yl)acetamide], the melting point was 217 to 219 °C. Besides, at telomerase, the IC50 amounted to 1.77 ± 0.6 µM.

`COc1cc(OC)c2c(=O)c(OCC(=O)Nc3nnc(-c4cccc(OC(F)(F)F)c4)o3)c(-c3ccc(OC)c(OC)c3)oc2c1` [B20, 2–(2-(3,4-dimethoxyphenyl)-5,7-dimethoxy-4-oxo-4H-chromen-3-yloxy)-N-(5–(3-(trifluoromethoxy)phenyl)-1,3,4-oxadiazol-2-yl)acetamide] displayed a melting point of 207 to 209 °C. This compound also gave an IC50 against telomerase of 20 ± 1.96 µM.

On to `COc1cc(OC)c2c(=O)c(OCC(=O)Nc3nnc(-c4ccccc4OC(F)(F)F)o3)c(-c3ccc(OC)c(OC)c3)oc2c1` [B21, 2–(2-(3,4-dimethoxyphenyl)-5,7-dimethoxy-4-oxo-4H-chromen-3-yloxy)-N-(5–(2-(trifluoromethoxy)phenyl)-1,3,4-oxadiazol-2-yl)acetamide], for which the melting point is 226 to 228 °C. For the same compound, the IC50 on telomerase worked out at 9.22 ± 1.01 µM.

Regarding `COc1ccc(-c2nnc(NC(=O)COc3c(-c4ccc(OC)c(OC)c4)oc4cc(OC)cc(OC)c4c3=O)o2)cc1` [B22, 2–(2-(3,4-dimethoxyphenyl)-5,7-dimethoxy-4-oxo-4H-chromen-3-yloxy)-N-(5–(4-methoxyphenyl)-1,3,4-oxadiazol-2-yl)acetamide], the melting point was 206 to 208 °C. The same compound had an IC50 against telomerase of 14.3 ± 1.33 µM.

A word on the IC50: it is the point on the concentration scale where inhibition reaches its midpoint. By melting point is commonly meant the temperature, or range, at which the solid turns liquid.

The record behind these values is paper PMC7782168, “Synthesis, telomerase inhibitory and anticancer activity of new 2-phenyl-4H-chromone derivatives containing 1,3,4-oxadiazole moiety” (Journal of Enzyme Inhibition and Medicinal Chemistry, 2020).
